Literature values as cited in patent publication US20040121961A1, “Uroguanylin and cyclooxygenase-2 inhibitor combinations for inhibition of intestinal cancer” (priority 2004, published 2004).
No end group written: not given here.

Legend:
[1] = system: T-84, human colon carcinoma cells; conditions: treatment with uroguanylin; reported in PCT/US00/21998
[2] = system: Min-mouse, an animal model for human Familial Adenomatous Polyposis (FAP); conditions: oral administration, reported in PCT/US00/21998

Question: What does the source list for “uroguanylin: enteric peptide hormone, GC-C receptor agonist; human uroguanylin chemically synthesized by solid phase peptide synthesis (NDDCELCVNVACTGCL; ends and bridges not checked; cysteine pairing not given here; UniProt Q16661 97-112, looked up)”?
Answer: apoptosis in T-84 cells [1]: induction of apoptosis; polyp formation in the intestinal tract [2]: inhibition in polyp formation
